Measurements as given in patent publication USRE48164E1, “Compounds and compositions for delivering active agents” (EMISPHERE TECHNOLOGIES INC., priority 2007, dated 2020).

Legend:
[1] = tested on: male, Sprague-Dawley rats; experiment: Oral Delivery of Insulin in Rats: whole blood glucose after oral gavage of insulin with delivery agent compound; type: in vivo, rat; conditions: sodium salt of delivery agent
Protocol: Human recombinant insulin (ICN Biomedicals, Aurora, Ohio) was dissolved in deionized water (ph˜6.5) to obtain stock insulin solutions having a concentration of 15 mg/ml. Sodium salts of the delivery agent compounds shown below in table 1 dissolved in deionized water to obtain a 200 mg/ml delivery agent solution. The free acid form of delivery agent as converted to the sodium salt by adding one equivalent of sodium hydroxide. Solutions were vortexted, sonicated, and heated. If necessary, additional sodium hydroxide was added in μl quantities to achieve uniform solubility in the delivery agent solutions. Solutions were adjusted to a pit of 3.5-8.5 by the addition of either hydrochloric acid or sodium hydroxide, as appropriate. The insulin stock solution was then added to the delivery agent solutions to obtain an administration solution ultimately having an insulin concentration of 0.5 mg/ml. After solubilization and drug addition, administration solutions were brought to a final volume by the addition of deionized water.
Insulin was administered to male, Sprague-Dawley rats either alone or in combination with delivery agent by oral gavage (PO). Rats, weighing 0.22 to 0.27 kg, were fasted for 18-24 hours prior to dosing. A Rusch 8 French catheter was cut to 11 cm in length and adapted to fit a 1 ml syringe. The syringe was filled with dosing solution and the catheter was inserted into the at mouth and fed down the esophagus (10.0 cm). The dosing solution was delivered by pressing the syringe plunger while holding the rat in an upright position. The doses of delivery agent and insulin were 200 mg/kg and […], respectively unless noted otherwise in Table 1. The dose volume was […].
Immediate to each blood sampling point, rats were exposed briefly (˜10 seconds) to carbon dioxide until prostrate. A 77-nun capillary tube was inserted into the retroorbital sinus. Typically, blood samples were collected prior to dosing (time=0) and at 15, 30, 45, and 60 minutes after dosing.
To determine the pharmacodynamic response, a hand-held glucometer (OneTouch Ultra, LifeScan—Johnson & Johnson, New Brunswick, N.J.) was used to measure whole blood glucose after administration of insulin or insulin and delivery agent. After discarding the first drop of blood, a small sample (˜5-10 μls) was touched to the glucometer test strip (OneTouch Ultra, LifeScan) and a blood glucose reading was generated by the meter. Samples at the times indicated below in Table 1 after dosing.

[2] = insulin 0.5 mg/kg, delivery agent 100 mg/kg, time period 30 minutes
[3] = insulin 0.5 mg/kg, delivery agent 100 mg/kg, time period 45 minutes
[4] = insulin 0.5 mg/kg, delivery agent 200 mg/kg, time period 30 minutes

Cc1ccc(C)c(OCCCC(=O)O)c1 [Compound 1, 4-(2,5-Dimethylphenoxy)butyric acid]
Average Glucose Reduction (5 rats/experiment) ([1]; insulin 0.05 mg/kg, delivery agent 200 mg/kg, time period 15 minutes): −16.1%
Average Glucose Reduction (5 rats/experiment) ([1]; insulin 0.10 mg/kg, delivery agent 200 mg/kg, time period 30 minutes): −13.0%
Average Glucose Reduction (5 rats/experiment) ([1]; insulin 0.3 mg/kg, delivery agent 200 mg/kg, time period 45 minutes): −34.0%
Average Glucose Reduction (5 rats/experiment) [1, 2]: −31.4%
Average Glucose Reduction (5 rats/experiment) [1, 3]: −60.6%

Cc1ccc(F)c(OCCCC(=O)O)c1 [Compound 12, 4-(2-Fluoro-5-methyl-phenoxy)-butyric acid]
Average Glucose Reduction (5 rats/experiment) ([1]; insulin 0.25 mg/kg, delivery agent 100 mg/kg, time period 30 minutes): −41.0%
Average Glucose Reduction (5 rats/experiment) ([1]; insulin 0.5 mg/kg, delivery agent 25 mg/kg, time period 60 minutes): −13.1%
Average Glucose Reduction (5 rats/experiment) ([1]; insulin 0.5 mg/kg, delivery agent 50 mg/kg, time period 60 minutes): −25.7%
Average Glucose Reduction (5 rats/experiment) [1, 2]: −47.9%

CC(C)(Oc1ccc(Cl)cc1)C(=O)NCCCCCC(=O)O [Compound 10, 6-[2-(4-Chlorophenoxy)-2-methylpropionyl]-aminohexanoic acid]
Average Glucose Reduction (5 rats/experiment) [1, 4]: 2.5%

CC(=O)c1cccc(OCCCCCC(=O)O)c1 [Compound 2, 6-(3-Acetylphenoxy)hexanoic acid]
Average Glucose Reduction (5 rats/experiment) ([1]; insulin 0.5 mg/kg, delivery agent 25 mg/kg, time period 45 minutes): −25.8%
Average Glucose Reduction (5 rats/experiment) ([1]; insulin 0.5 mg/kg, delivery agent 50 mg/kg, time period 45 minutes): −30.2%
Average Glucose Reduction (5 rats/experiment) [1, 3]: −50.8%

O=C(O)CCCOc1cccc(F)c1 [Compound 7, 4-(3-Fluorophenoxy)butyric acid]
melting point: 53 to 54 °C

Cc1cc(F)ccc1OCCCC(=O)O [Compound 11, 4-(4-Fluoro-2-methyl-phenoxy)-butyric aid]
Average Glucose Reduction (5 rats/experiment) [1, 4]: −63.7%
Average Glucose Reduction (5 rats/experiment) ([1]; insulin 0.5 mg/kg, delivery agent 200 mg/kg, time period 45 minutes): −78.0%

O=C(O)CCCOc1ccccc1Cl [Compound 8, 4-(2-Chlorophenoxy)butanoic acid]
melting point: 85 to 87 °C

Cc1cccc(OCCCC(=O)O)c1 [Compound 6]
melting point: 53 to 54 °C
Average Glucose Reduction (5 rats/experiment) ([1]; insulin 0.25 mg/kg, delivery agent 100 mg/kg, time period 45 minutes): −30.9%
Average Glucose Reduction (5 rats/experiment) [1, 3]: −39.3%
Average Glucose Reduction (5 rats/experiment) ([1]; insulin 0.5 mg/kg, delivery agent 200 mg/kg, time period 60 minutes): −14.4%
